According to patent US20050070719A1, “Inhibitors of dipeptidyl peptidase iv” (priority 2001, published 2005):
pIC50: −log10 of the molar value. Where a name gives a salt, the structure may show the parent alone.

Target: T1, DPP IV (Rattus norvegicus, UniProt P14740)
T1 construct: Add 25 uL of rat plasma or buffer to wells; from tissue; host or cells: rat plasma
Experiment: Measuring DPP IV inhibition (rat plasma, fluorogenic peptide substrate)
Format: biochemical
Conditions: substrate H-Gly-Pro-alpha methyl coumarin, 30 min, room temp
Protocol: Dilute 1 volume of rat plasma ([…] with sodium citrate) to 2.5 volumes assay buffer (25 mM HEPES, 140 mM NaCl, 1% BSA [added on the day of the assay]; pH 7.8) to yield approximately 350 micrograms total protein/well in a 96-well plate. […] Dilute the peptide substrate (H-Gly-Pro-alpha methyl coumarin, 10 mM stock in 100% DMSO) 1:100 in assay buffer. Compounds of this invention are diluted in 100% DMSO. Add 10 microliter of diluted compounds or DMSO vehicle to wells. Add 25 uL of rat plasma or buffer to wells. Add 25 uL MgCl2 to all wells. Vortex gently for 1 minute, then pre-incubate at room temp for 10 minutes. Start the reaction by adding 50 uL peptide substrate (no vortexing), and incubate the plate at room temp in the dark for 30 minutes. […] Read the plate at 380 nm (excitation) and 460 nm (emission).

T1 sequence (P14740 37-767 limits assumed): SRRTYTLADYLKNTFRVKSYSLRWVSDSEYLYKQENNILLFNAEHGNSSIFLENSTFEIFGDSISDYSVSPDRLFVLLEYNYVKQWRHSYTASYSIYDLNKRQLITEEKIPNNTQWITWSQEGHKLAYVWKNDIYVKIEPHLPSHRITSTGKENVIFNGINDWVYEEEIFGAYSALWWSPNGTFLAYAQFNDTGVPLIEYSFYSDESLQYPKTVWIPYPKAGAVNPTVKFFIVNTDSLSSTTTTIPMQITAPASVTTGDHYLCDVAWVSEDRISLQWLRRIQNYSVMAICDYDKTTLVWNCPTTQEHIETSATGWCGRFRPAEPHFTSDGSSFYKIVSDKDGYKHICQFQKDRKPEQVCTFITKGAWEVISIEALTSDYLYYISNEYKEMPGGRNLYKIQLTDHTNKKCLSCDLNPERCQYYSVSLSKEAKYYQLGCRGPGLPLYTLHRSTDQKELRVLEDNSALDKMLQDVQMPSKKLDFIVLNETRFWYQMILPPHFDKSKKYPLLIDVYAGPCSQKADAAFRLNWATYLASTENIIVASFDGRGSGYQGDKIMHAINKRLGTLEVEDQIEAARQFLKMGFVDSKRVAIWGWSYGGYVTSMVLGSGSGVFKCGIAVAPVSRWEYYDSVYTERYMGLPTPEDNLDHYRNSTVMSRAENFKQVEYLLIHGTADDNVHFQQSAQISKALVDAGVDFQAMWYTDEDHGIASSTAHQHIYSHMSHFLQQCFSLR

Compound	pIC50
O=C(CNC12CC3CC(CC(C3)C1)C2)N1CCSC1 [Example 12, 1-[2-(adamant-1-ylamino)acetyl]-3-thiopyrrolidine]	5.32
N#C[C@@H]1CCCN1C(=O)[C@H]1NCC2CCCCC21 (some centres unmarked) [Example 4, 2-(L)-Cyano-(octahydro-isoindolyl)pyrrolidine hydrogen chloride]	6.26
Cl.N#CC1CCN1C(=O)C1CC2CCCCC2N1 (centres unmarked) [Example 20, 1-(octahydroindole-2-carbonyl)azetidine-2-carbonitrile hydrochloride]	6.75
Cl.N#CC1CCCN1C(=O)C1CC2CCCCC2N1 (centres unmarked) [Example 1, 1-(octahydroindole-2-carbonyl)pyrrolidine-2-carbonitrile hydrochloride]	7.86
N#CC1CCN1C(=O)C1CCCN1 (centres unmarked) [Example 17, 1-(pyrrolidine-2-carbonyl)azetidine-2-carbonitrile]	5.96
N#C[C@@H]1CC(F)CN1C(=O)C(N)C1CCCCC1 (some centres unmarked) [Example 14, 2-Cyano-4-fluoro-1-cyclohexylglycylpyrrolidine hydrogen chloride]	8.19
O=C(C1CC2CCCCC2N1)N1CCCC1 (centres unmarked) [Example 10, 1-(octahydroindole-2-carbonyl)pyrrolidine hydrochloride]	5.00
N#CC1CCN1C(=O)C(N)C1CCCCC1 (centres unmarked) [Example 16, 1-(2-amino-2-cyclohexyl-acetyl)azetidine-2-carbonitrile]	5.92
N#CC1CC(F)CN1C(=O)C1CC2CCCCC2N1 (centres unmarked) [Example 3, 2-cyano-4-fluoro-1-(octahydroindole-2-carbonyl)-pyrrolidine hydrogen chloride]	8.78
N#CC1CSCN1C(=O)C1CC2CCCCC2N1 (centres unmarked) [Example 5, 3-(octahydroindole-2-carbonyl)thiazolidine4-carbonitrile hydrochloride]	8.42
N[C@H](C(=O)N1CC=CC1)C1CCCCC1 [Example 6, 1-(L-α-cyclohexylglycyl)-3-pyrroline hydrogen chloride]	5.73
N#CC1CCN1C(=O)CNC12CC3CC(CC(C3)C1)C2 (centres unmarked) [Example 18, 1-[2-(adamant-1-ylamino)acetyl]-azetidine-2-carbonitrile]	6.65
CCC(C)[C@H](N)C(=O)N1CC(F)C[C@H]1C#N (some centres unmarked) [Example 13, 2-cyano-4-fluoro-1-(sec-butyl)glycylpyrrolidine hydrogen chloride]	8.21
N#CC1CCCN1C(=O)C1NCC2CC21 (centres unmarked) [Example 2, 1-(3-azabicyclo[3.1.0]hexane-2-carbonyl)pyrrolidine-2-carbonitrile hydrochloride]	7.22
N[C@H](C(=O)N1CCCCC1)C1CCCCC1 [Example 8, 1-(L-α-cyclohexylglycyl)piperidine hydrogen chloride]	4.65

Tested on: MPTP-lesioned mouse model of Parkinson's disease
Experiment: In vivo reinnervation of the denervated striatum by nigrostriatal dopaminergic fibers (MPTP-lesioned mouse model of Parkinson's disease)
Conditions: CD1 mice, MPTP 34 mg/kg i.p. days 1-5; compound 10 mg/kg s.c. once daily days 1-5; analysis day 7
Description: MPTP (N-methyl-4-phenyl-1,2,3,6-tetrahydropyridine) is a systemically available neurotoxin specific to nigrostriatal dopaminergic neurons, i.e. to the cells that degenerate in human Parkinson's disease. Administration of MPTP to mice leads to a selective partial destruction of the mesotelencephalic dopaminergic projection, and to a loss of dopamine and dopaminergic fibres in the corpus striatum, which is the main forebrain target of midbrain dopaninergic neurons.
Young adult male CD1 albino mice (Harlan-Sprague Dawley; 22-25 g) were dosed i.p. with the dopamine cell-specific neurotoxin N-methyl-4-phenyl-1,2,3,6-tetrahydropyridine (MPTP hydrochloride, calculated as 34 mg/kg free base), dissolved in saline at a concentration of 3.4 mg/ml free base once daily on days one to five. […]
Blinded analysis of TH fiber density in the central striatum was performed at 630× magnification. […] The percentage of sample field covered by TH positive processes and terminals was calculated using an image analysis program (“Simple,” Compix Inc., Pittsburgh, Pa.). The mean striatal innervation density was calculated for each group. The magnitude of striatal deafferentation due to the MPTP lesion was assessed by dividing the observed striatal innervation values obtained in MPTP/vehicle treated cases by the mean striatal innervation density in the Vehicle/Vehicle group and expressed as % loss. […]

Compound	% protection of striatal tyrosine hydroxylase-immunoreactive fibres [%]
Cl.N#CC1CCN1C(=O)C1CC2CCCCC2N1 (centres unmarked) [Example 20, 1-(octahydroindole-2-carbonyl)azetidine-2-carbonitrile hydrochloride]	32.6
Cl.N#CC1CCCN1C(=O)C1CC2CCCCC2N1 (centres unmarked) [Example 1, 1-(octahydroindole-2-carbonyl)pyrrolidine-2-carbonitrile hydrochloride]	32.5
